System: cultured human mast cells (CHMC)
Experiment: CHMC low cell density IgE activation: tryptase assay
Assay type: cell-based
Settings: Homo sapiens, Mast cell, Low Density; read-out: CHMC anti-IgE Tryptase
Protocol: Pellet CHMC cells (980 rpm, 10 min) and resuspend in pre-warmed MT. Add 65 ul of cells to each 96-well plate. Depending on the degranulation activity for each particular CHMC donor, load 1000-1500 cells/well. Mix four times followed by a 1 hr incubation at 37° C. […] Stimulate cells by adding 25 ul of 6× anti-IgE solution to the appropriate plates. Add 25 ul MT to un-stimulated control wells. Mix twice following addition of the anti-IgE. Incubate at 37° C. for 30 minutes. […] Spin plates at 1000 rpm for 10 min to pellet cells. Transfer 25 ul of supernatant to a 96-well black bottom plate and add 100 ul of freshly diluted tryptase substrate solution to each well. Incubate plates at room temperature for 30 min.

| Structure (SMILES) | IC50 [nM] |
| --- | --- |
| Fc1cnc(Cl)nc1Nc1ccc2ncccc2c1 [Compound R920409] | > 10000 |
| CN(C=C1C=CC=C(Nc2nc(Cl)ncc2F)C1)C(=O)OC(C)(C)C [Compound R940315] | > 10000 |
| Fc1cnc(Cl)nc1Nn1cccc1 [Compound R935275] | > 10000 |
| Fc1cnc(Cl)nc1Nc1cccc(OC(F)(F)F)c1 [Compound R920402] | > 10000 |
| OCCOc1ccc(Nc2ncc(F)c(Nc3cccc(O)c3)n2)cc1 [Compound R935155] | 401 |
| Fc1cnc(Cl)nc1Nc1ccc(Cl)nc1 [Compound R920400] | > 10000 |

Same assay, conditions: low cell density; read-out: CHMC anti-IgE Tryptase

| Structure (SMILES) | IC50 [nM] |
| --- | --- |
| COc1ccc(Nc2nc(Nc3cc(Cl)c(OC)c(Cl)c3)ncc2F)cc1Cl [Compound R927054] | > 10000 |
| Fc1cnc(NC2CC2)nc1NC1CC1 [Compound R945376] | > 10000 |
| COc1c(Cl)cc(Nc2ncc(F)c(NC3CCC3)n2)cc1Cl [Compound R945397] | 928 |
| CNC(=O)COc1cccc(Nc2ncc(F)c(Nc3cc(Cl)c(OC)c(Cl)c3)n2)c1 [Compound R927057] | 370 |
| COc1ccc(Nc2ncc(F)c(Nc3ccc4c(c3)C(NC(=O)OC(C)(C)C)CCO4)n2)cc1Cl (racemic) [Compound R950427] | 1900 |
| CC(=O)N1CCN(c2ccc(Nc3nc(NC4CC4)ncc3F)cc2)CC1 [Compound R945381] | > 10000 |
| COc1ccc(Nc2nc(Nc3cc(C)cc(C)c3)ncc2F)cc1Cl [Compound R926991] | 436 |
| CCOC(=O)CCn1ncc2cc(Nc3ncc(F)c(Nc4ccc(Cl)c(Cl)c4)n3)ccc21 [Compound R935389] | 877 |
| COc1c(Cl)cc(Nc2ncc(F)c(Nc3ccc(OC(F)(F)F)c(Cl)c3)n2)cc1Cl [Compound R927055] | > 10000 |
| COc1cc(Nc2nc(Nc3ccc4c(cnn4C)c3)ncc2F)ccc1F [Compound R935410] | 417 |
| COc1cc(Nc2ncc(F)c(Nc3ccc4c(c3)NC(=O)C(C)(C)O4)n2)cc(OC)c1 [Compound R927072] | 64 |
| COc1cc(Nc2ncc(F)c(Nc3ccc(N4CCOCC4)c(Cl)c3)n2)cc(C(F)(F)F)c1 [Compound R926987] | 10000 |
| COc1c(C)cc(Nc2ncc(F)c(Nc3ccc4c(n3)NC(=O)C(C)(C)O4)n2)cc1C [Compound R940395] | > 10000 |
| Fc1cnc(NC2CCC2)nc1NC1CCC1 [Compound R945380] | > 10000 |
| CNC(=O)COc1cccc(Nc2ncc(F)c(Nc3ccc4c(c3)NC(=O)C(F)(F)O4)n2)c1 [Compound R945415] | 46 |
| COc1cc(Nc2nc(Nc3ccc4c(c3)C(N)CCO4)ncc2F)cc(OC)c1 (racemic) [Compound R950436] | 5530 |
| Cn1ncc2ccc(Nc3nc(Nc4ccc5c(c4)NC(=O)C(C)(C)O5)ncc3F)cc21 [Compound R935424] | 628 |
| NCc1ccc(Nc2ncc(F)c(Nc3ccc4c(c3)NC(=O)C(F)(F)O4)n2)cc1 [Compound R950465] | 351 |
| CCN(C(C)=O)c1ccc(Nc2ncc(F)c(Nc3ccc4c(n3)NC(=O)CO4)n2)cc1 [Compound R945421] | 371 |
| NCc1ccc(Nc2ncc(F)c(Nc3ccc(Cl)c(Cl)c3)n2)cc1 [Compound R950459] | 632 |
| COc1c(Cl)cc(Nc2ncc(F)c(Nc3ccc4c(c3)C(=O)NC(=O)C4(C)C)n2)cc1Cl [Compound R908955] | 293 |
| Cc1cc(Nc2ncc(F)c(Nc3ccc4c(c3)OCCO4)n2)cc(Cl)c1O [Compound R940393] | 5260 |
| Cn1ncc2ccc(Nc3ncc(F)c(Nc4ccc(F)c(F)c4)n3)cc21 [Compound R935401] | 510 |

| Structure (SMILES) | IC50 [nM] |
| --- | --- |
| CC(=O)N(C)c1ccc(Nc2ncc(F)c(Nc3ccc4c(n3)NC(=O)CO4)n2)cc1 [Compound R945420] | 436 |
| CC(=O)N(C)c1ccc(Nc2ncc(F)c(NC3CCC3)n2)cc1 [Compound R945383] | 985 |
| CC1Oc2ccc(Nc3nc(Nc4ccc5c(c4)C(N)CCO5)ncc3F)cc2NC1=O (mixture of isomers) [Compound R950438] | 888 |
| Cc1cc(Nc2ncc(F)c(Nc3ccc4c(n3)NC(=O)C(C)(C)O4)n2)cc(Cl)c1O [Compound R940394] | 16500 |
| Fc1ccc(Nc2nc(Nc3ccc4cn[nH]c4c3)ncc2F)cc1F [Compound R935400] | 502 |
| COc1ccc(Nc2nc(Nc3cc(Cl)cc(Cl)c3)ncc2F)cc1Cl [Compound R926990] | 11300 |
| CNC(=O)CCn1ncc2ccc(Nc3ncc(F)c(Nc4ccc(OC)c(Cl)c4)n3)cc21 [Compound R935409] | 1170 |
| CNC(=O)COc1cccc(Nc2ncc(F)c(Nc3ccc4c(c3)C(NS(C)(=O)=O)CCO4)n2)c1 (racemic) [Compound R950494] | > 10000 |
| CC(C)(C)OC(=O)NCc1ccc(Nc2ncc(F)c(Nc3ccc4c(c3)C(=O)NC(=O)C4(C)C)n2)cc1 [Compound R950462] | > 10000 |
| COc1ccc(Nc2ncc(F)c(Nc3ccc4c(c3)NC(=O)C(C)(C)O4)n2)c(OC)n1 [Compound R927068] | 890 |
| Cn1ncc2cc(Nc3ncc(F)c(Nc4ccc(F)c(Cl)c4)n3)ccc21 [Compound R935426] | > 10000 |
| C[C@@H]1Oc2ccc(Nc3nc(Nc4ccc(CNC(=O)OC(C)(C)C)cc4)ncc3F)cc2NC1=O [Compound R950460] | 177 |
| O=C1COc2ccc(Nc3nc(Nc4ccc(Oc5ccccc5)cc4)ncc3F)nc2N1 [Compound R945409] | > 10000 |
| COc1ccc(Nc2nc(Nc3ccc4cnn(CCCO)c4c3)ncc2F)cc1Cl [Compound R935407] | 393 |
| COc1cc(Nc2ncc(F)c(Nc3ccc4c(c3)C(NC(=O)OC(C)(C)C)CCO4)n2)cc(OC)c1 (racemic) [Compound R950425] | 1150 |
| CCN(CC)CCNC(=O)c1ccc(Nc2ncc(F)c(Nc3ccc(Cl)c(Cl)c3)n2)cc1 [Compound R950445] | 379 |
| COc1c(C)cc(Nc2ncc(F)c(Nc3ccc4cnn(C)c4c3)n2)cc1Cl [Compound R935419] | 230 |
| CC(C)(C)OC(=O)NCc1ccc(Nc2ncc(F)c(Nc3ccc4c(c3)NC(=O)C(F)(F)O4)n2)cc1 [Compound R950464] | 244 |
| Cc1cc(C)cc(Nc2ncc(F)c(Nc3ccc4c(c3)NC(=O)C(C)(C)O4)n2)c1 [Compound R927076] | 71 |
| COC(=O)N1CCN(c2ccc(Nc3nc(NC4CC4)ncc3F)cc2)CC1 [Compound R945373] | > 10000 |
| NC(=O)c1ccc(Nc2ncc(F)c(Nc3ccc4c(c3)NC(=O)C(F)(F)O4)n2)cc1 [Compound R950455] | 217 |
| CC(=O)N1CCN(c2ccc(Nc3nc(NC4CCC4)ncc3F)cc2)CC1 [Compound R945382] | > 10000 |
| COC(=O)N1CCN(c2ccc(Nc3ncc(F)c(NC4CCC4)n3)cc2)CC1 [Compound R945386] | 1390 |

| Structure (SMILES) | IC50 [nM] |
| --- | --- |
| CNC(=O)COc1cccc(Nc2ncc(F)c(Nc3ccc(OC4CCC(NC(=O)OC(C)(C)C)CC4)c(Cl)c3)n2)c1 (mixture of isomers) [Compound R945384] | 913 |
| CNC(=O)CCn1ncc2cc(Nc3ncc(F)c(Nc4ccc(Cl)c(Cl)c4)n3)ccc21 [Compound R935390] | 544 |
| Cc1cccc(C)c1Nc1ncc(F)c(Nc2ccc(Cl)c(Cl)c2)n1 [Compound R927079] | 599 |
| COc1cc(Nc2ncc(F)c(Nc3ccc4cnn(C)c4c3)n2)cc(OC)c1 [Compound R935420] | 561 |
| COc1cc(Nc2nc(N[C@@H]3CCCC[C@H]3N)ncc2F)cc(OC)c1 [Compound R950439] | > 10000 |
| CC1(C)C(=O)NC(=O)c2cc(Nc3nc(Nc4ccc(CN)cc4)ncc3F)ccc21 [Compound R950463] | 2460 |
| CNC(=O)COc1cccc(Nc2ncc(F)c(Nc3ccc(OC)c(Cl)c3)n2)c1 [Compound R926989] | 199 |
| O=C1COc2ccc(Nc3nc(Nc4ccc(OCc5ccccc5)cc4)ncc3F)nc2N1 [Compound R945410] | > 10000 |
| CCOC(=O)CCn1ncc2ccc(Nc3ncc(F)c(Nc4ccc5c(c4)NC(=O)C(C)(C)O5)n3)cc21 [Compound R935434] | 308 |
| COc1ccc(Nc2nc(Nc3ccc4c(cnn4C)c3)ncc2F)cc1OC [Compound R935412] | 696 |
| CNC(=O)c1ccc(Cn2ncc3ccc(Nc4ncc(F)c(Nc5ccc6c(c5)OCCO6)n4)cc32)c(OC)c1 [Compound R935399] | 909 |
| COc1ccc(Nc2nc(Nc3ccc4[nH]ncc4c3)ncc2F)cc1OC [Compound R935441] | 586 |
| CCCCOc1ccc(Nc2ncc(F)c(Nc3ccc4c(n3)NC(=O)CO4)n2)cc1 [Compound R945408] | > 10000 |
| Cn1ncc2ccc(Nc3ncc(F)c(Nc4ccc5c(c4)NC(C)(C)CO5)n3)cc21 [Compound R908592] | 50 |
| COc1cc(Nc2nc(Nc3ccc4c(c3)C(NC(=O)OC(C)(C)C)CCO4)ncc2F)cc(OC)c1 (racemic) [Compound R950432] | 2420 |
| COc1ccc(Nc2nc(Nc3cc(C)c(C)c(C)c3)ncc2F)cc1Cl [Compound R926993] | 689 |
| CNC(=O)COc1cccc(Nc2ncc(F)c(Nc3ccc4c(c3)C(NC(=O)CN(C)C)CCO4)n2)c1 (racemic) [Compound R950416] | 2270 |
| CNC(=O)COc1cccc(Nc2ncc(F)c(Nc3cc(C)c(OC)c(Cl)c3)n2)c1 [Compound R926974] | 293 |
| CNC(=O)COc1cccc(Nc2ncc(F)c(Nc3ccc4c(c3)C(NS(=O)(=O)c3ccc(C)cc3)CCO4)n2)c1 (racemic) [Compound R950493] | 1890 |
| NC(=O)c1ccc(Nc2ncc(F)c(Nc3ccc(Cl)c(Cl)c3)n2)cc1 [Compound R950451] | 70 |
| Cc1cc(Nc2ncc(F)c(Nc3ccc4cnn(C)c4c3)n2)cc(Cl)c1O [Compound R935395] | 276 |
| O=C(COc1cccc(Nc2ncc(F)c(NC3CCC3)n2)c1)NC1CCC1 [Compound R945396] | 2240 |
